Literature values in patent publication US10519176B2, “Crystalline forms” (GRUNENTHAL GMBH, priority 2010, dated 2019).

How the values were obtained:
[1] = according to FDA SBA
[2] = in vivo
[3] = according to FDA SBA; remark: listed apart in the source

O=P(O)(O)C(O)(Cn1ccnc1)P(=O)(O)O [Zoledronic acid, (1-hydroxy-2-imidazol-1-yl-1-phosphono-ethyl)phosphonic acid]
oral bioavailability [1]: approximately 1%
gastric and intestinal irritations [2]: severe gastric and intestinal irritations
permeability in the GI tract [3]: poor permeability
solubility in 0.1 N HCl solution (0.1 N HCl solution): sparingly soluble
solubility in 0.1 N NaOH (0.1 N NaOH): freely soluble
solubility in various organic solvents (various organic solvents): practically insoluble
solubility in water (water): sparingly soluble
